Laboratory results taken from PMC7467771, “Lipophilic Arginine Esters: The Gateway to Preservatives without Side Effects” (Molecular Pharmaceutics, 2020).
Where two headings read alike, the source gives them in different places.

How the values were obtained:
red blood cells = details: cited from earlier work
E. coli = details: against E. coli; cited from earlier work
[1] = octanol/water partition coefficient (log P) by TNBS assay; assay type: physicochemical; details: octanol/water mixture 1:1 v/v; mean, n = 3
Procedure: Log P of Arg and both Arg-esters were determined using an already described method.[15] Each compound was dissolved in an octanol/water mixture (1:1, v/v). Afterward, octanol and water phases were separated by a high-speed mini centrifuge (Fisher Scientific, Illinois USA), and the concentration of each compound in each phase was determined by the TNBS assay. For this, a 50 μL volume from each phase was diluted 10 times with 0.1 M sodium bicarbonate (pH 8.5) containing 40% (v/v) isopropyl alcohol. After dilution, 250 μL of the TNBS reagent (0.01%, v/v) prepared in 0.1 M sodium bicarbonate (pH 8.5) was added to each sample that was incubated at 37 °C. After 2 h, the reaction was stopped by adding 250 μL of 10% (m/v) SDS and 125 μL of 1 M HCl. The absorbance of each sample was measured at 335 nm using a Spark multifunctional microplate reader (Tecan Austria, GmbH). The logarithm of the octanol/water absorbance ratio was expressed as log P for each sample.

Caco-2 cells = experiment: resazurin assay, cytotoxicity; assay type: cell-based; details: Caco-2, 4 h incubation; for EC50 (concentration causing 50% cell death): calculated from cell viability data
Procedure: The resazurin assay was used to determine the cytotoxic potential of Arg-esters according to a previous method with some minor modifications.[15] Caco-2 cells were seeded in a 24-well cell culture plate at 25 000 cells per well density and kept in an incubator at 37 °C under a 95% relative humidity environment and 5% CO2 level. Minimum essential medium (MEM) supplemented with streptomycin (0.1 mg […]), penicillin (100 units […]), and fetal calf serum (FCS) 10% (v/v) was used for growing cells. During a growth period of 14 days, the medium was replaced every other day. On the day of the experiment, test solutions of Arg-OL and Arg-DT esters were prepared in 25 mM HBS (HEPES buffered saline) buffer (pH 7.4) in the concentration range of 1000–3000 μg mL^–1. For comparison, the same concentrations of BAC and cetrimide were also prepared in HBS. HBS without any addition was used as a positive control, and Triton X-100 (2%, v/v) in HBS was used as a negative control. The growth medium from all wells of the cell culture plate was removed, and cells were washed three times with HBS preheated at 37 °C. Each test solution and controls were then added to individual wells in a volume of 500 μL, and the cell culture plate was incubated under the same conditions. After 4 h, the solution from each well was removed, and cells were washed with HBS (pH 7.4) preheated at 37 °C. Then, 500 μL of resazurin (2.2 mM) per well was added and incubated for further 3 h under the same conditions. Afterward, the fluorescence of the supernatant from each well was measured at the excitation wavelength of 540 nm and an emission wavelength of 590 nm. Cell viability was calculated by the equation: [drawing 4]

[2] = system: Enterococcus faecalis ATCC 19433; experiment: disk diffusion method; assay type: cell-based; details: test solution 10 mg mL^–1, disks about 6 mm, overnight 37 °C
Procedure: (§1) Following bacterial strains were used for antimicrobial susceptibility testing: Escherichia coli ATCC 25922, Staphylococcus aureus ATCC 29213, Bacillus subtilis ATCC 6633, and Enterococcus faecalis ATCC 19433, which were obtained from the American Type Culture Collection (ATCC, Virginia, USA).
(§2) The disk diffusion method was used for the initial assessment of the antimicrobial activity of Arg-esters. Mueller Hinton agar (MHA, Biomerieux) medium was prepared according to the manufacturer protocol and poured into Petri dishes. All testing microorganisms were dissolved in saline and set to a 0.5 McFarland standard turbidity. This corresponds to a bacterial concentration of 1.5 × 10^8 colony-forming units per milliliter (CFU mL^–1). The bacterial suspension was then swabbed over solidified MHA Petri dishes ensuring homogeneous distribution. The test solutions of Arg-OL, Arg-DT, BAC, and cetrimide were prepared in water with 10% (v/v) DMSO at a concentration of 10 mg mL^–1. Water with 10% (v/v) DMSO was used as a negative control. The diffusion disks of about 6 mm in diameter were prepared from Whatman filter paper. After immersing disks in the above-prepared test solutions, they were placed on MHA plates already swabbed with different bacteria. After overnight incubation of Petri dishes at 37 °C, clear zones of bacterial growth inhibition around disks were measured.

[3] = system: Bacillus subtilis ATCC 6633; experiment: disk diffusion method; assay type: cell-based; details: test solution 10 mg mL^–1, disks about 6 mm, overnight 37 °C
Procedure: as §1, §2

[4] = system: Escherichia coli ATCC 25922; experiment: disk diffusion method; assay type: cell-based; details: test solution 10 mg mL^–1, disks about 6 mm, overnight 37 °C
Procedure: as §1, §2

[5] = system: Staphylococcus aureus ATCC 29213; experiment: disk diffusion method; assay type: cell-based; details: test solution 10 mg mL^–1, disks about 6 mm, overnight 37 °C
Procedure: as §1, §2

[6] = system: Enterococcus faecalis ATCC 19433; experiment: MIC testing by the microdilution method; assay type: cell-based; details: microdilution, overnight 37 °C, tested 5000 to 5 μg mL^–1
Procedure: as §1
(§3) The MIC is the lowest concentration of a substance that leads to a clearly visible growth inhibition after a defined incubation period. To evaluate the MIC of Arg-DT, Arg-OL, BAC, and cetrimide, a microdilution test was performed according to the guidelines of the Clinical and Laboratory Standards Institute.[19] First of all, similarly, as for the disk diffusion test, microorganisms were dissolved in saline and set to a 0.5 McFarland standard turbidity. This corresponds to a bacterial concentration of 1.5 × 10^8 colony-forming units per milliliter (CFU mL^–1); 50 μL of the bacterial suspension was added to 10 mL of Mueller Hinton Bouillon (MHB, Becton Dickinson, New Jersey, USA). The stock solutions were prepared as follows: the test compounds Arg-OL, Arg-DT, BAC, and cetrimide were dissolved in water with 10% (v/v) DMSO at a concentration of 10 mg mL^–1. The obtained solutions were used to prepare serial dilutions. The tested concentration for each substance ranged from 5000 to 5 μg mL^–1. Each test sample was added to a flat-bottomed tissue plate well in the volume of 75 μL. The first well of the tissue plate containing 75 μL of water with 10% (v/v) DMSO instead of any test sample was used as a positive control. Finally, 75 μL of the bacterial suspension was added to each well, and the plates were incubated at 37 °C overnight.
(§4) Before measuring the optical density (OD), plates were shaken for 15 min at 250 rpm. The OD was measured using the Bio-Rad 680 microplate reader (Hercules, California, USA) at a wavelength of 490 nm. Inhibition of bacterial growth was defined as a reduction of growth for at least 5 log units. Experiments were performed three times under analogous conditions for each bacterial strain and each tested sample.

[7] = system: Bacillus subtilis ATCC 6633; experiment: MIC testing by the microdilution method; assay type: cell-based; details: microdilution, overnight 37 °C, tested 5000 to 5 μg mL^–1
Procedure: as §1, §3, §4

[8] = system: Escherichia coli ATCC 25922; experiment: MIC testing by the microdilution method; assay type: cell-based; details: microdilution, overnight 37 °C, tested 5000 to 5 μg mL^–1
Procedure: as §1, §3, §4

[9] = system: Staphylococcus aureus ATCC 29213; experiment: MIC testing by the microdilution method; assay type: cell-based; details: microdilution, overnight 37 °C, tested 5000 to 5 μg mL^–1
Procedure: as §1, §3, §4

red blood cells (RBC) = experiment: hemolysis study; assay type: cell-based; details: human RBC, 1 h, 37 °C, PBS pH 7.4
Procedure: The hemolysis test was performed with red blood cells (RBC) to evaluate the potential toxic effect of Arg-surfactants on human cells.[18] Human RBC concentrate was kindly donated by the Tirol Kliniken GmbH, Innsbruck, Austria, and stored at 4 °C until use. RBC concentrate (0.556 mL) was freshly diluted by adding sterile Dulbecco’s PBS (pH 7.4) (1.944 mL) before the test to obtain an equivalent amount of whole blood (EWB). Then EWB was 50 times diluted in sterile Dulbecco’s PBS (pH 7.4). The diluted blood on visual inspection was turbid and settled down upon leaving undisturbed, indicating no cell lysis. Arg-surfactant stock solutions were prepared in the concentration range of 10–5000 μg mL^–1 in PBS. For comparison, BAC and cetrimide solutions were prepared in the same concentration range in PBS. For the assay, 10 μL of each test sample was mixed with 190 μL of diluted blood, resulting in the testing final concentrations of 0.5–250 μg mL^–1. For the positive control, 10 μL of 20% v/v Triton X-100 and, for the negative control, 10 μL of sterile Dulbecco’s PBS were mixed with 190 μL of diluted blood. All samples and controls were incubated for 1 h at 37 °C with shaking. After centrifugation at 10 000 rpm for 60 s, aliquots of 100 μL were withdrawn from the supernatants and transferred to a 96-well plate. Absorbance was measured at a wavelength of 420 nm. The extent of hemolysis as a percentage was determined by using the following equation: [drawing 6]

Compound	EC50 (concentration causing 50% cell death) (Caco-2 cells) [μg mL^–1]	zones of inhibition [2] [mm]	zones of inhibition [3] [mm]	zones of inhibition [4] [mm]	zones of inhibition [5] [mm]	minimum inhibitory concentration [6] [μg mL^–1]	minimum inhibitory concentration [7] [μg mL^–1]	minimum inhibitory concentration [8] [μg mL^–1]	minimum inhibitory concentration [9] [μg mL^–1]	further results
CCCCCC(=O)N[C@@H](CCCNC(=N)N)C(=O)OC [CAM, caproyl arginine methyl ester]	–	–	–	–	–	–	–	–	–	HC50 (red blood cells; reported in the literature): 38.5 μg mL^–1
CCCCCCCCCCCC(=O)N[C@@H](CCCNC(=N)N)C(=O)OC [LAM, lauroyl arginine methyl ester]	–	–	–	–	–	–	–	–	–	HC50 (red blood cells): 20.8 μg mL^–1; MIC (E. coli): 128 μg mL^–1
CCCCCCCC(=O)N[C@@H](CCCNC(=N)N)C(=O)OCC [Nα-octanoyl arginine ethyl ester]	–	–	–	–	–	–	–	–	–	MIC (not effective at the highest tested concentration) (E. coli): > 256 μg mL^–1
N=C(N)NCCC[C@H](N)C(=O)O [arginine, L-Arginine]	–	–	–	–	–	–	–	–	–	logP [1]: -1.9
benzalkonium chloride [BAC, reference compound]	20	20	23	19	21	5	5	10	5	–
cetrimide [reference compound]	20	19	19	12	19	5	5	20	5	cell viability (Caco-2 cells; all tested concentrations (1000–3000 μg mL^–1)): < 10%; HC50 (concentration causing lysis of 50% red blood cells) (red blood cells (RBC)): 23 μg mL^–1
